The text below walks through data of patent US9757427B2, “Combination comprising zidovudine and polymyxin” (HELPERBY THERAPEUTICS LIMITED, priority 2013, dated 2017).

One assay relates to log phase Klebsiella. The experiment in a line: time kill curve against log phase Klebsiella. The assay is classed as cell-based.
For assay [1], the system named is log phase Escherichia coli and Klebsiella pneumoniae. The experiment in a line: chequerboard method, MIC alone and in combination, log phase bacteria. Format: cell-based. To be noted: for MIC before combination: single agent, chequerboard. The source says:
In relation to (b) above, methods for determining activity against log phase bacteria include a determination, under standard conditions (i.e. conditions known to those skilled in the art, such as those described in WO 2005014585, the disclosures of which document are hereby incorporated by reference), of Minimum Inhibitory Concentration (“MIC”) or Minimum Bactericidal Concentration (“MBC”) for a test compound. Specific examples of such methods are described below. In Vitro Activity of Zidovudine Combined Together with Colistin Against Log Phase Escherichia coli and Klebsiella pneumoniae Using Chequerboard Method

As for `Cc1cn([C@H]2C[C@H](N=[N+]=[N-])[C@@H](CO)O2)c(=O)[nH]c1=O` [HT0120663, Zidovudine], the “time kill outcome after 6 hours” value with log phase Klebsiella (HT0120663 at 4 μg/ml, after the 6 hour kill) is given as “regrowth of the bacteria”. The log kill entry in the assay on log phase Klebsiella (HT0120663 at 4 μg/ml, at 6 hours) was “about 1 log”. In assay [1] (combined with 2 μg/ml of colistin), the “MIC of HT0120663 in combination” value stood at 1 µg/mL. For the same compound, the MIC before combination in assay [1] turned out to be 4 µg/mL.

Colistin: the time kill outcome in the assay with log phase Klebsiella (Colistin at 16 μg/ml) was “inhibition up to 6 hours”. Also, in assay [1] (combined with 2 μg/ml of HT0120663), the “MIC of colistin in combination” value is 0.25 µg/mL. Moreover, the MIC before combination in assay [1] was determined as 4 µg/mL.
